Key:
[1] = biological target: Sodium-dependent dopamine transporter (Rattus norvegicus, UniProt P23977); assay: Inhibition of [3H]WIN-35428 binding to Dopamine transporter
[2] = biological target: Norepinephrine transporter (Rattus norvegicus, UniProt Q9WTR4); assay: Binding potency for Norepinephrine transporter using [3H]NE
[3] = biological target: Sodium-dependent serotonin transporter (Rattus norvegicus, UniProt P31652); assay: Binding potency for Serotonin transporter using [3H]- paroxetine
Sodium-dependent serotonin transporter, sequence (P31652 whole entry): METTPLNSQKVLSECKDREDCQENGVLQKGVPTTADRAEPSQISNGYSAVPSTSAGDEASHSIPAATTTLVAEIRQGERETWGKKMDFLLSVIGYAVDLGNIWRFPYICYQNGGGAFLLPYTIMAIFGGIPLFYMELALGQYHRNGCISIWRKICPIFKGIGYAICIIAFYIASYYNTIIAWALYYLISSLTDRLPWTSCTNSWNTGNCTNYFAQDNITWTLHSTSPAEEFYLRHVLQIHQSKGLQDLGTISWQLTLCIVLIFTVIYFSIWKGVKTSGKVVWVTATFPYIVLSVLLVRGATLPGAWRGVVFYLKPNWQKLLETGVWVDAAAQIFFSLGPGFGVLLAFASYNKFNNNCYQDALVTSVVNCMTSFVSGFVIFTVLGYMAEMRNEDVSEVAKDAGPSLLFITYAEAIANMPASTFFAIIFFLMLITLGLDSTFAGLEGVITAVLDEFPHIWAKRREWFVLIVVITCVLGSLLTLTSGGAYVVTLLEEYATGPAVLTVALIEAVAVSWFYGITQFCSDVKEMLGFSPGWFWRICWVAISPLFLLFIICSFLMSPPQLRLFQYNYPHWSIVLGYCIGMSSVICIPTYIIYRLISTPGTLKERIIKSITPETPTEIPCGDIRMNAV

Sodium-dependent dopamine transporter, sequence (P23977 whole entry): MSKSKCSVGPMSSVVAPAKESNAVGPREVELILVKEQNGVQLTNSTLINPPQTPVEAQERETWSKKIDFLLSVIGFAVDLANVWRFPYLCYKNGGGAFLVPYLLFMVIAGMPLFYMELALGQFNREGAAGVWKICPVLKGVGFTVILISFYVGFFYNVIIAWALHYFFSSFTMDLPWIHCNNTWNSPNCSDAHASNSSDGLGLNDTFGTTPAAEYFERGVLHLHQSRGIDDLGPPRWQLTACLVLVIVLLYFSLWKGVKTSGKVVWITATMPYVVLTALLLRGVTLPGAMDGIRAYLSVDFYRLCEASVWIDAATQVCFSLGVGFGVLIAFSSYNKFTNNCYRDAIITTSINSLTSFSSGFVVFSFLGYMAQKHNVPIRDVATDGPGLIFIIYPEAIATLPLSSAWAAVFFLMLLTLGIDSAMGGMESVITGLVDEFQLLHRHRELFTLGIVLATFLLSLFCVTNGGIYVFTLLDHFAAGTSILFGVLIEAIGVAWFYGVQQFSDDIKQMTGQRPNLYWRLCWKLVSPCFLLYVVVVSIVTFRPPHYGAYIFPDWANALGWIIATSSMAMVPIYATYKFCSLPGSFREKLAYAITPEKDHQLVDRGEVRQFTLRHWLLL
Norepinephrine transporter, sequence (Q9WTR4 whole entry): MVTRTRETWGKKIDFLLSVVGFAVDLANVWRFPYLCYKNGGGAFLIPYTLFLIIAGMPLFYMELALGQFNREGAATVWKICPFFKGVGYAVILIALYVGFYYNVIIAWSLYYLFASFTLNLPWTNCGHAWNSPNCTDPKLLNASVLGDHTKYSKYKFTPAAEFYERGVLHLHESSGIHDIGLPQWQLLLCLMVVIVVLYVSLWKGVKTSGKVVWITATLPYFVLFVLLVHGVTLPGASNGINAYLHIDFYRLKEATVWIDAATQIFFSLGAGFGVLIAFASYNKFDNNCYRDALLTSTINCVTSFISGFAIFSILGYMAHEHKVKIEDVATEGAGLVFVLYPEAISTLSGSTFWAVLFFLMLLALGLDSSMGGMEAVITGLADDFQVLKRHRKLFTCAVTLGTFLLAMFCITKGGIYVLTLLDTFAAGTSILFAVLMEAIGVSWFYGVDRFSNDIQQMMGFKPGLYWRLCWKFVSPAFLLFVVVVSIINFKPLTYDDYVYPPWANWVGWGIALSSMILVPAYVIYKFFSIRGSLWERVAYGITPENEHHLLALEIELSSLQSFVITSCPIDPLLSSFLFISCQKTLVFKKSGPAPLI

**Q.** Which IC50 [1] does the source give for `COC(=O)C1C(c2ccc(C)cc2)CC2CCC1N2C` (centres undefined) here?
**A.** 10.2 nM

**Q.** And the IC50 [2]?
**A.** 275 nM

**Q.** Which IC50 [3] does the source give for `COC(=O)[C@H]1[C@@H](c2ccc(F)cc2)C[C@H]2CC[C@H]1N2C` (stereo in doubt; 1a) here?
**A.** 810 nM

**Q.** For `COC(=O)[C@H]1[C@@H](c2ccc(F)cc2)C[C@H]2CC[C@H]1N2C` (stereo in doubt; 2a), which IC50 [3] is on record?
**A.** 5060 nM

**Q.** How did the IC50 [1] turn out when `COC(=O)C1C(c2ccc(Cl)cc2)CC2CCC1N2C` (stereo in doubt; 2c) was run?
**A.** 2.4 nM

**Q.** And the IC50 [3]?
**A.** 998 nM

**Q.** Which IC50 [1] does the source give for `COC(=O)[C@@H]1C2CC[C@H](C[C@@H]1c1ccccc1)N2C` (stereo in doubt; 2e) here?
**A.** 101 nM

**Q.** Which results are given for `COC(=O)C1C(c2ccc(I)cc2)CC2CCC1N2C` (stereo in doubt; form 1)?
**A.** IC50 [1]: 2.85 nM; IC50 [2]: 52.4 nM

— ChEMBL document CHEMBL1129677, “3 alpha-(4'-substituted phenyl)tropane-2 beta-carboxylic acid methyl esters: novel ligands with high affinity and selectivity at the dopamine transporter” (J Med Chem, 1996)
